Test results reported in US20220267801A1, “ELIMINATION OF PROLIFERATING CELLS FROM STEM CELL-DERIVED GRAFTS” (Research Development Foundation, priority 2016, published 2022).
“Also recorded” adds a separate entry of the source.

Tests used:
[1] = test system: TK-PSC (HS415 pluripotent stem cells expressing HSV-TK under Ki67 promoter); experiment: Calcein cell viability assay, ganciclovir on TK-PSC; format: cell-based, human
Experimental: (§1) The impact of ganciclovir on TK cells was determined in vitro (FIG. 2B, 2C, 2D). TK PSCs were highly sensitive to ganciclovir exposure (96 h) and even at ganciclovir concentrations of 2.5 μM loss of cells was observed, which was almost complete at 10 μM (FIG. 2B, 2C). In contrast, regular PSCs (i.e., not transduced with the TK construct) were resistant to ganciclovir even at concentrations of 40 μM (FIG. 2B, 2F). As expected from the lack of TK expression in TK neurons, TK neurons were not affected by ganciclovir concentrations up to 40 μM, similar to the control neurons.
(§2) The time course of the ganciclovir effect was also investigated (FIG. 2D). TK PSCs were killed by Ganciclovir (40 μM) within 4 days. TK-NPCs after 1 week of neurosphere differentiation were still sensitive to Ganciclovir (40 μM), however the time course of killing was markedly slowed down and complete killing was observed only after 8 days.
(§3) Cell proliferation measurement by calcein assay: Cells were plated onto a 96 wells pre-coated with polyornothine+ECM (1/50). Respectively 1000 cells for pluripotent stem cells, 5000 cells for early NPC and 30000 cells for late NPC. Ganciclovir (Cemevene diluted in PBS, Roche) treatment was added the day after cell plating for PSC, 3 days later for early NPC and one week later for late NPC. Calcein (2 μM) was added for different time course of ganciclovir treatment (24 H to 96 H). Cell survival was measured by calcein integration after 24 h of incubation in a 37° C. incubator.

[2] = test system: regular PSCs (not transduced with the TK construct); experiment: Calcein cell viability assay, ganciclovir on control PSC; format: cell-based, human; conditions: concentrations up to 40 μM
Experimental: as §1, §3

TK neurons = experiment: Calcein cell viability assay, ganciclovir on TK-neurons; format: cell-based, human; conditions: concentrations up to 40 μM
Experimental: as §1
(§4) Generation of NPC in two dimensional culture (2D): For differentiation in 2D, 3-week old neurospheres were dissociated with ACCUMAX® (Millipore) and replated on polyornithine- (15 μg/mL; Sigma) and laminin- (2 μg/cm^2; R&D System) coated cover slips (diameter=0.8cm) in 24-well plates at 200,000 cells/cm^2 in maturation medium for 1 week before analysis by immunofluorescence staining (FIG. 1B).
(§5) Cell proliferation measurement by calcein assay: Cells were plated onto a 96 wells pre-coated with polyornothine+ECM (1/50). Respectively 1000 cells for pluripotent stem cells, 5000 cells for early NPC and 30000 cells for late NPC. […] Cell survival was measured by calcein integration after 24 h of incubation in a 37° C. incubator.

control neurons = experiment: Calcein cell viability assay, ganciclovir on control neurons; format: cell-based, human; conditions: concentrations up to 40 μM
Experimental: as §1, §4, §5

[3] = test system: TK-NPCs (neurosphere-derived neural precursor cells); experiment: Calcein cell viability assay, ganciclovir time course on TK-NPC; format: cell-based, human; conditions: 40 μM ganciclovir
Experimental: as §2
Generation of neurospheres containing DA neuropecursors: NPC were generated as neurospheres to contain DA progenitors as described previously (Tieng et al., 2014). Briefly, neural midbrain orientation is performed during the first week followed by 2 additional weeks of maturation to obtain 1 week or 2 or 3 week-old NPC (FIGS. 1B, 3A).
as §3

[4] = test system: teratoma from transplanted TK-PSC; experiment: TK-PSC transplantation into striatum of NOD/SCID mice, ganciclovir treatment, teratoma formation; format: in vivo
Experimental: (§6) FIGS. 3A-3C: Schedule of cell transplantation and ganciclovir treatment. Different transplantation and ganciclovir treatment protocols were used. (A) Schematic representation of the differentiation protocol towards DA neurons. Pluripotent stem cells were cultured as neurospheres for 1 week for midbrain orientation phase, followed by a 2 or 3 week-maturation phase. (B) Transplantation of undifferentiated pluripotent stem cells with early or late ganciclovir treatment. Early treatment: undifferentiated pluripotent stem cells were transplanted and ganciclovir (or PBS control) was applied by daily intra-peritoneal injection from day 4 to day 19 post-transplantation. Late treatment: undifferentiated pluripotent stem cells were transplanted and ganciclovir (or PBS control) was applied by daily intra-peritoneal injection from day 30 to day 45 post-transplantation. (C) Transplantation of 2 or 3 week NPC: NPC containing- neurospheres were dissociated and transplanted into mice striatum. Ganciclovir (or PBS control) treatment was given from day 4 to day 19 post-transplantation. For all protocols, animals were sacrificed 1 month after termination of ganciclovir treatment.
Early, but not late ganciclovir treatment prevents tumor formation upon transplantation of highly proliferative pluripotent stem cells: Given the encouraging results in vitro, it was investigated whether ganciclovir could prevent tumor formation in vivo. For this purpose TK-PSC were transplanted into the striatum of NOD/SCID mice. […] There was a moderate amount of mouse microglia invasion.
It was next investigated whether ganciclovir could also be used to treat already established teratomas. […] Mice were sacrificed 30 days after the end of the ganciclovir treatment.
(§7) Stereotaxic engraftment and ganciclovir treatment: Undifferentiated pluripotent stem cells (20000 cells/ μL) and dissociated neurospheres (100.000 cells/μL) were injected in the striatum of anesthetized mice using a 27-G Hamilton syringe. Injection coordinates for lateral striatum were: bregma=0.74 mm, mediolateral=2.25 mm, dorsoventral=3.5 mm; for medial striatum: bregma=0.74 mm, mediolateral=1.4 mm, dorsoventral=2.8 mm. Mice were euthanized one month later after ganciclovir termination.
Morphological and Phenotypic Analysis of Injected Surviving Cells: Anesthetized mice were fixed by intracardiac perfusion of 4% paraformaldehyde in phosphate-buffered saline. Immunohistochemical detection was performed on 10-μm thick free-floating cryostat sections using Alexa 488®-, or 555-labeled secondary antibodies or the biotin—avidin—peroxidase complex method (Vector). The following primary antibodies were used: Nestin (rabbit polyclonal anti-human, from Chemicon, 1/400), β3-tubulin (mouse monoclonal from Sigma or rabbit polyclonal from Covance, 1/2000), Neuronal Nuclei-specific protein (NeuN, mouse monoclonal from Chemicon, 1/1000), Glial Fibrillary Acidic Protein (GFAP, rabbit polyclonal from Dako, 1/2000), Proliferating Cell Nuclear Antigen (PCNA, mouse monoclonal from Dako, 1/100), Tyrosin Hydroxylase (TH, rabbit polyclonal from millipore, 1/500), iba 1 (polyclonal rabbit from Wako, 1/500), HSV-TK (mouse monoclonal, Gentaur, 1/100), ki67 (monoclonal rabbit, Abcam, 1/100 or mouse, Chemicon, 1/100).

[5] = test system: transplanted TK-NPC graft; experiment: Transplantation of 2-3 week NPC neurospheres into mouse striatum, ganciclovir treatment; format: in vivo, mice
Experimental: as §6
Transplantation of TK-NPCs produced mature neurons which were not sensitive to ganciclovir treatment: The in vivo results, shown so far, were obtained with transplantation of undifferentiated pluripotent stem cells. However, the final goal of neuronal cell therapy is the transplantation of neural precursor cells, which should differentiate into mature neurons and be resistant to ganciclovir treatment. Therefore, 2-3 weeks-NPC containing neurospheres were transplanted (FIGS. 3C, 8). Under these conditions, no tumor formation was observed, even in the absence of ganciclovir treatment (FIG. 8A). In line with these observations, the transplanted cells (assessed by immunofluorescence 7 weeks after transplantation) were abundantly positive for beta 3 tubulin (FIG. 8B, upper panel), while a smaller fraction of cells was TH-positive (FIG. 8B, lower panel). Occasionally nestin-positive cells were observed.
Markers of cellular proliferation were analyzed by staining of the transplants with antibodies against PCNA and Ki67 (FIG. 8C). […] To verify whether the PCNA-positive, Ki67-negative cells were proliferating cells, BrdU experiments were performed.
as §7, with “Mice were euthanized one month later after ganciclovir termination.” left out

[6] = early treatment, one month after termination of treatment

In the case of `Nc1nc(O)c2ncn(COC(CO)CO)c2n1` [ganciclovir], the “time to killing of TK PSCs” value ([1]; 40 μM ganciclovir) is reported as at most 4 days, the “ganciclovir concentration at which loss of cells was almost complete” value ([1]; TK PSCs, 96 h exposure) is reported as 10 µM and the “ganciclovir concentration at which loss of cells was observed” value ([1]; TK PSCs, 96 h exposure) is reported as 2.5 µM. The “sensitivity of regular (control) PSCs to ganciclovir” value [2] was “resistant; also recorded: no ganciclovir toxicity is observed”, the “effect of ganciclovir on TK neurons” value (TK neurons) was “not affected; also recorded: lose their sensitivity” and the “effect of ganciclovir on control neurons” value (control neurons) was “not affected”. The “time to complete killing of TK-NPCs” value ([3]; TK-NPCs after 1 week of neurosphere differentiation) was 8 days, the “killing of TK-NPCs” value ([3]; TK-NPCs after 2 weeks of neurosphere differentiation) was “not killed” and the “tumor development (graft surface)” value ([4]; early ganciclovir treatment) was “completely prevented”. The “Ki67 and TK expression in the graft region” value [4, 6] was “virtually no Ki67 and TK expression”, the “human cells (HCM) remaining in the graft” value [4, 6] was “hardly any human cells left; also recorded: barely detectable” and the teratoma formation ([4]; early treatment: 15 days, starting 4 days post-transplantation, daily i.p.) was “no observed teratomas; also recorded: absence of teratoma formation”. The “tumor size (graft surface)” value ([4]; late ganciclovir treatment) was “did not have any effect”, the teratoma formation ([4]; late treatment: days 30-45 post-transplantation, sacrifice 30 days after end of treatment) was “teratoma formation; also recorded: no difference” and the “size of transplants (graft surface)” value ([5]; NPC from 2-3 weeks old neurospheres, early ganciclovir treatment) was “not affected”. For the same compound, the “proliferation marker pattern of transplants (PCNA positive, Ki67 low to absent)” value ([5]; ganciclovir vs control) was “did not alter this pattern”, the “neural markers of transplanted cells (beta 3 tubulin, TH, nestin)” value ([5]; immunofluorescence 7 weeks after transplantation) was “None of these markers were affected” and the “graft development, ganciclovir vs PBS” value ([5]; sacrifice 4 weeks after termination of treatment) was “No difference”.
